Data reported in ChEMBL document CHEMBL1201862, “PubChem BioAssay data set” (2004).
Activity calls are given as the source filed them. No rule for the calls is given here.

Assays:
[1] = target: Dual specificity protein phosphatase 3 (Homo sapiens, UniProt P51452); assay: VHR1 phosphatase inhibitors, primary screen, biochemical, absorbance, uHTS (AID 1654)
[2] = target: T1, Dual specificity tyrosine-phosphorylation-regulated kinase 3 (Homo sapiens, UniProt O43781); format: functional;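 also: measured as one member of a broad kinase panel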
T1 sequence (O43781 whole entry): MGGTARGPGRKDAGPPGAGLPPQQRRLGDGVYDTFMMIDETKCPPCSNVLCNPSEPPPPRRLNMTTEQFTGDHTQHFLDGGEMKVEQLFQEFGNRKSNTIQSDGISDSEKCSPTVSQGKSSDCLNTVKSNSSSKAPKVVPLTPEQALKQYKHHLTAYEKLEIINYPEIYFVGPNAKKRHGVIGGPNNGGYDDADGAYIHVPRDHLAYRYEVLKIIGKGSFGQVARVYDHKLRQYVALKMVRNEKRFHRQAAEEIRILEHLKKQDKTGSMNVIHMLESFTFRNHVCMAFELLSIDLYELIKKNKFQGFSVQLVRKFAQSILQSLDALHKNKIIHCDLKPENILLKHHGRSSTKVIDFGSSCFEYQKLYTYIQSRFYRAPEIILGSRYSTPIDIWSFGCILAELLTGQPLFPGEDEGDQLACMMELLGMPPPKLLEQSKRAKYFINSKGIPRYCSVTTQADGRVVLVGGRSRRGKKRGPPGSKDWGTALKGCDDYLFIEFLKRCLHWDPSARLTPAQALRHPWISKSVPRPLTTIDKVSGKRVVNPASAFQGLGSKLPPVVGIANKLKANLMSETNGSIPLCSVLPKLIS

[3] = target: Serine/threonine-protein kinase PAK 1 (Homo sapiens, UniProt Q13153); format: functional
[4] = target: Interleukin-1 receptor-associated kinase 4 (Homo sapiens, UniProt Q9NWZ3); format: functional
[5] = target: Tyrosine-protein kinase Lck (Homo sapiens, UniProt P06239); format: functional;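 also: lck was assayed as one member of a kinase panel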
[6] = target: Death-associated protein kinase 3 (Homo sapiens, UniProt O43293); format: functional;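 also: measured as one member of a kinome-wide profiling panel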
[7] = target: Serine/threonine-protein kinase 3 (Homo sapiens, UniProt Q13188); format: functional;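 also: measured as one member of a kinome-wide kinase panel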
SRSF protein kinase 1 = SRSF protein kinase 1 (Homo sapiens, UniProt Q96SB4); format: functional;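 also: measured as one member of a kinome-wide kinase profiling panel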
[8] = target: Fibroblast growth factor receptor 1 (Homo sapiens, UniProt P11362); format: functional
[9] = target: Mitogen-activated protein kinase 9 (Homo sapiens, UniProt P45984); format: functional;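 also: value from a kinome panel profiling assay, MAPK9 panel entry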
[10] = target: Dual specificity protein kinase CLK2 (Homo sapiens, UniProt P49760); format: functional
Dual specificity protein kinase CLK2, sequence (P49760 whole entry): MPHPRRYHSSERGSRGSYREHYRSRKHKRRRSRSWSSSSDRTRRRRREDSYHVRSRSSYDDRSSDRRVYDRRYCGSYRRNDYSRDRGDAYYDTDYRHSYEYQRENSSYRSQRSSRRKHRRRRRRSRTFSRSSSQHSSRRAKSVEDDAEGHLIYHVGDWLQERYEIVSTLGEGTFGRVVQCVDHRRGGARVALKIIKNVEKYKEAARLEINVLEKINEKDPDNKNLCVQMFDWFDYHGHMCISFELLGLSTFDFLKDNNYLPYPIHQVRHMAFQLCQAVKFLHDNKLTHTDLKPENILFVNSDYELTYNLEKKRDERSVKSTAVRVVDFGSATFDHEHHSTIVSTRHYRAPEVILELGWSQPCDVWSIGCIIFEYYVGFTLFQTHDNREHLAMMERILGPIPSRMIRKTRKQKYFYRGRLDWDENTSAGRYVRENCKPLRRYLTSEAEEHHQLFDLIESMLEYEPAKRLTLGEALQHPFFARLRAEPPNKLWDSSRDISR

Serine/threonine-protein kinase 3, sequence (Q13188 whole entry): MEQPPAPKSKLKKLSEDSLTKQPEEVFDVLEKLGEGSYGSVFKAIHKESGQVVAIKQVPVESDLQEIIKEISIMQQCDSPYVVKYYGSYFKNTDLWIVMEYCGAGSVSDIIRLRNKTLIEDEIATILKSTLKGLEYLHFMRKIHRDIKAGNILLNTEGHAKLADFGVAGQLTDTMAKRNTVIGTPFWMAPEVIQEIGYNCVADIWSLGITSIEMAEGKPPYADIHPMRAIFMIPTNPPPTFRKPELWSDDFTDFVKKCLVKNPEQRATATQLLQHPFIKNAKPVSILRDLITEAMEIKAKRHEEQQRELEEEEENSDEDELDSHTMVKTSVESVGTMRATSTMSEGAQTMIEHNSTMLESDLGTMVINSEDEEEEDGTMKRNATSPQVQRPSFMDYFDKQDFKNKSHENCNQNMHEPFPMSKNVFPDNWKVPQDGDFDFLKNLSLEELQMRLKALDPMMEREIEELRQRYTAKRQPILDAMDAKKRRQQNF
Tyrosine-protein kinase Lck, sequence (P06239 whole entry): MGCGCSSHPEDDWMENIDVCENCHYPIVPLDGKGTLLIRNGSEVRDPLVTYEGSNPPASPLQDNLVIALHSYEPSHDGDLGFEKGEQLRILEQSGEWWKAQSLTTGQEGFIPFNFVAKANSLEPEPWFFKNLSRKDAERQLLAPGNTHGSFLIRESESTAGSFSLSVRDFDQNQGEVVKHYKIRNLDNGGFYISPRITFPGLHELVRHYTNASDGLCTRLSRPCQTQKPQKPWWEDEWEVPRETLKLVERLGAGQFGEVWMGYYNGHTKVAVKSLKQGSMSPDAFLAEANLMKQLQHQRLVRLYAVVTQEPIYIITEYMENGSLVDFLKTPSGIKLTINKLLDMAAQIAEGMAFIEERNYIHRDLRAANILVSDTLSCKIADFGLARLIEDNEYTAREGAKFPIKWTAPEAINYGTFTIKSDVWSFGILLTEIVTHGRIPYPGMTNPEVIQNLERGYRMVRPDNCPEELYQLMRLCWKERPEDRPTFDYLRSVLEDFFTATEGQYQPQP
Interleukin-1 receptor-associated kinase 4, sequence (Q9NWZ3 whole entry): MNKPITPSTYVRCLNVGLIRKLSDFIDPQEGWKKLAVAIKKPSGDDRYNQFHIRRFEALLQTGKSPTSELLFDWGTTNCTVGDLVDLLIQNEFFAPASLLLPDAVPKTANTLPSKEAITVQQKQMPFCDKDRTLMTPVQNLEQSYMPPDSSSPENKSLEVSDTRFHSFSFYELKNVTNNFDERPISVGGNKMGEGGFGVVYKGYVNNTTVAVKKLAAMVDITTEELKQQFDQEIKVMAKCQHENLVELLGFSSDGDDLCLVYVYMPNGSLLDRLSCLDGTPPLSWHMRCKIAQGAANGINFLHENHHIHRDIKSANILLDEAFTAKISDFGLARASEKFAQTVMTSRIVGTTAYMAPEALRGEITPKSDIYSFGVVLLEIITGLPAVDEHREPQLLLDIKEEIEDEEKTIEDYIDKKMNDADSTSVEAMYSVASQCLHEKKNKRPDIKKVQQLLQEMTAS
Dual specificity protein phosphatase 3, sequence (P51452 whole entry): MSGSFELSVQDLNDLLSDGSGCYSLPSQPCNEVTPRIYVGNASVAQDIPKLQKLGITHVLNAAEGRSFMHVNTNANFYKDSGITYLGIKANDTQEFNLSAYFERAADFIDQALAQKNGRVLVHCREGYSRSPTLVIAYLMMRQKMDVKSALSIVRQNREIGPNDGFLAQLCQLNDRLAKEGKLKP
Fibroblast growth factor receptor 1, sequence (P11362 whole entry): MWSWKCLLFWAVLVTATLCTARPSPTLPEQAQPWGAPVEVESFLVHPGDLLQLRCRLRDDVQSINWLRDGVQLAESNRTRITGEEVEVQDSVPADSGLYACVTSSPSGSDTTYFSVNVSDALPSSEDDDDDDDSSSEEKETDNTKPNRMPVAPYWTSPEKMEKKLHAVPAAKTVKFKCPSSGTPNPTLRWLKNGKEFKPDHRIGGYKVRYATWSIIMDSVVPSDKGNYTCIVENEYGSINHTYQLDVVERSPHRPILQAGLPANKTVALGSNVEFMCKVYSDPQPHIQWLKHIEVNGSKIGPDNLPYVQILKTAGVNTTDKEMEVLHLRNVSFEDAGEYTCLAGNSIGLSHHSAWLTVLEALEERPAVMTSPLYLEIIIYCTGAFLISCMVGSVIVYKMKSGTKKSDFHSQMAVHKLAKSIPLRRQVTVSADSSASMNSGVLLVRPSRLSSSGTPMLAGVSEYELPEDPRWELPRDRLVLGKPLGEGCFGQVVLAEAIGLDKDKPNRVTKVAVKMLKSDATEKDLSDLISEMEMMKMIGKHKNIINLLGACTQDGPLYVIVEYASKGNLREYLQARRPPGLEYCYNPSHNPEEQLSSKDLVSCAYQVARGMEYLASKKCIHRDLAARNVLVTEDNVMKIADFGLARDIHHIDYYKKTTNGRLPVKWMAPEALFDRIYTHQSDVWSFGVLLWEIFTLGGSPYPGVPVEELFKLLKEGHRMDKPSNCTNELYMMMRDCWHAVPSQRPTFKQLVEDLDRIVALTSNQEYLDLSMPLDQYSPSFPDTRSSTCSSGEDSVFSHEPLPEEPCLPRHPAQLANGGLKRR
Death-associated protein kinase 3, sequence (O43293 whole entry): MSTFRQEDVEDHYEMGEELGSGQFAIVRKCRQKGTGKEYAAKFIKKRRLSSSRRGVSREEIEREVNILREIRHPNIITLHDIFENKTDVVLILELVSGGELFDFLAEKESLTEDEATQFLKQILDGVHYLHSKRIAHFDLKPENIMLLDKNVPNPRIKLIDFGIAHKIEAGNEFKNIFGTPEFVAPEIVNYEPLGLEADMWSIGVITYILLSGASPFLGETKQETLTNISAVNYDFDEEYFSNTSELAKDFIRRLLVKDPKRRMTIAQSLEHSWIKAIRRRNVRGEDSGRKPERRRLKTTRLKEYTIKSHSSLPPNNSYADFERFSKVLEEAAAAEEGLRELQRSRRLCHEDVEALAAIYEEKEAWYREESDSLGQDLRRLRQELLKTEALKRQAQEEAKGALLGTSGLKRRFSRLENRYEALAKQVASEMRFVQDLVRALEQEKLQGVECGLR
Mitogen-activated protein kinase 9, sequence (P45984 whole entry): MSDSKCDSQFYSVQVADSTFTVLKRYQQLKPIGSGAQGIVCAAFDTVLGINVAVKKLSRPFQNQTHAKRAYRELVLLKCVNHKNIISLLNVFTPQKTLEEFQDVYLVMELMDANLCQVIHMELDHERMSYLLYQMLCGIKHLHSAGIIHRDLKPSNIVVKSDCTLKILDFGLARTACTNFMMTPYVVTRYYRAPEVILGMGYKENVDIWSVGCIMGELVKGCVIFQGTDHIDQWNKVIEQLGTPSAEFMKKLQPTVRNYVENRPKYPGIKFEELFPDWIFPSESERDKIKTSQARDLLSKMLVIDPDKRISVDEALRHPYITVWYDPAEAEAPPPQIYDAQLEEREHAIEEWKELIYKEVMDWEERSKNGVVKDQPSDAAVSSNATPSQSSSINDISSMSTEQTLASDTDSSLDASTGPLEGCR
Serine/threonine-protein kinase PAK 1, sequence (Q13153 whole entry): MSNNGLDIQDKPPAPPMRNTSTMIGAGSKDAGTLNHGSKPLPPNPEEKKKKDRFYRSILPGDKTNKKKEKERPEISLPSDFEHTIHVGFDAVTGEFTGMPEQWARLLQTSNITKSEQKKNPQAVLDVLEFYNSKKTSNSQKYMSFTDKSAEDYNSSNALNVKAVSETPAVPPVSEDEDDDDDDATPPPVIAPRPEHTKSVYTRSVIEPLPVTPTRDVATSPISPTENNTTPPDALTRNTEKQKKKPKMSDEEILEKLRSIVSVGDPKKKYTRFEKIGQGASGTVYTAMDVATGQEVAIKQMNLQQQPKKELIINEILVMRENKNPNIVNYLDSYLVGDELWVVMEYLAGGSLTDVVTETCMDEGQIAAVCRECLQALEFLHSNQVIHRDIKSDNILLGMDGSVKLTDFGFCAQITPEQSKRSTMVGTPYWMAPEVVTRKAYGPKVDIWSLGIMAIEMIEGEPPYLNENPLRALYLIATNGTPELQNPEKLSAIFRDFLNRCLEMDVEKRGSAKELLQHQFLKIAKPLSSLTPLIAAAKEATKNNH

SMILES | IC50 [1] | Ki [2] | Ki [3] | Ki [4] | Ki [5] | Ki [6] | Ki [7] | Ki (SRSF protein kinase 1) | Ki [8] | Ki [9] | Ki [10]
CCCc1nc2c(=O)n(C)c(=O)nc-2n(C)n1 | < 0.98 µM (inactive) | – | – | – | – | – | – | – | – | – | –
COc1cc2ncn(-c3cc(OCc4ccccc4C(F)(F)F)c(C(N)=O)s3)c2cc1OC [GW843682X] | – | > 6.31 µM (inactive) | > 10 µM (inactive) | > 10 µM (inactive) | 2 µM (active) | > 1.26 µM (inactive) | 0.2 µM (active) | > 7.94 µM (inactive) | 3.98 µM (active) | > 3.98 µM (inactive) | > 7.94 µM (inactive)
